Measurements as given in US20100266591A1, “METHOD OF TREATING ERYTHROPOIETIN HYPORESPONSIVE ANEMIAS” (priority 2008, published 2010).
“Also recorded” adds a separate entry of the source. Each block holds one molecule with its values, some of them ahead of it.

Experiments:
[1] = tested on: ala +/+ mice; test: Hgb response in normal ala +/+ littermates; assay type: in vivo, mouse; settings: single subcutaneous dose, 12,000 U/kg
[2] = tested on: UT7 cells; test: UT7 cell proliferation assay; assay type: cell-based, human
Description: Particularly useful in identifying and calibrating compositions useful in the method of the invention is the UT7 cell proliferation assay. The UT7 is a human leukemic cell line that has been adapted to become EPO-dependant. In order to use the UT7 cell proliferation assay for selection of a composition or a dose to be administered to a subject having low blood hemoglobin content, the cells are washed free or normal culture medium and starved for EPO for 24 hours prior to assay. For example, the UT-7 cell starvation can proceed in IMDM media with added L-glutamine and FBS at 5% (I5Q). The cells are then prepared and suspended in the appropriate media to a final concentration of 6×10^5 cells/mL (yields a final concentration of 30,000 cells per 96-well chamber). An EPO standard is prepared by diluting EPO stock to 5 ng/mL followed by 1:2 serial dilutions down to a concentration of 0.0098 ng/mL in I5Q media. […] Cell proliferation is assessed using a vital stain such as Promega's MTS solution (Promega, Madison, Wis.) according to the manufacturer's instructions. The EC50 is calculated from a curve fit of concentration vs proliferation as measured by the increase in absorbance of the chromophore or other signal. […]
Using UT-7 cells, which display EPO-R and require an ESA for proliferation, competitive binding for the human EPO-R between CNTO 530 inhibited and ^125I-EPO was measured. […]

[3] = tested on: C57Bl/6 mice; test: Hgb response in C57Bl/6 mice (Example 1); assay type: in vivo, mouse
From the text: (§1) To comparative the pharmacodynamics of epoetin-α in C57Bl/6 and Tg197 mice, study animals were assigned to groups as shown in Table 1. On Day 0 the mice received a weight-adjusted, subcutaneous injection of test article (freshly diluted from stock) or PBS. Mice were euthanized by CO2 asphyxiation and blood was collected for each sample.
Hematology: Blood samples from mice in the model characterization and pharmacodynamic studies were collected at the times indicated in Tables 1 and 2. Blood was collected from mice anesthetized with a CO2 mixture via open chest cardiac puncture into commercially prepared EDTA coated microtubes. Blood analyses were performed on whole blood using the ADVIA 120 blood analyzer (Bayer Diagnostics, Tarrytown, N.Y.). Data are expressed as group mean±standard deviation. Results: Data are expressed as the group mean and standard deviation or as group mean change from control. Mean values for the PBS control mice were used as the Day 1 baseline. For graphing, the nominal day may differ from the actual day of blood sampling by 1 day. Mean (±standard deviation) hematological data for 30 CBF1 and 50 Tg197 PBS control mice (9 to 13 weeks old) are shown in Table 3.

[4] = tested on: W/Wv mice; test: Hgb response in c-kit deficient (W/Wv) mice; assay type: in vivo, mouse; settings: single subcutaneous dose, 12,000 U/kg
Description: Materials and Methods. Male and female WBB6F1/J-KitW/KitW-v (black eyed, white coat, affected; Related genotype ala KitW/KitW-v) (W/Wv) mice were obtained from Jackson Laboratories, Bar Harbor, Me. at 5 to 7 weeks of age. These mice are deficient in c-kit the receptor for SCF. The mice were group housed in filter topped plastic shoe-box style cages. CNTO 530 (30 UT-7 Units/ug) and epoetin-α (120 UT-7 Units/ug) were tested and PBS pH 7.4 was used as the control article. Study Design: On Day 1 mice received a weight-adjusted, subcutaneous (s.c.) dose of epoetin-α, CNTO 530 or PBS (10 mL/kg) according to Table 4. Three mice/sex were bled per group at each designated time point according to Table 4. On Days 4, 9, 14, and 28 (males) or 30 (females), mice were anesthetized with CO2 and blood samples ([…]) taken via open chest cardiac puncture for hematology. Blood was collected directly into tubes prepared with EDTA and mixed thoroughly for approximately 10 seconds and placed on a rocker to prevent coagulation. Whole blood was be analyzed using an ADVIA 120 hematology analyzer.
Results. Data are expressed as the group mean and standard deviation or as group mean change from control. Mean values for the PBS control mice were used as the Day 1 baseline. For graphing, the nominal day may differ from the actual day of blood sampling by 1 day.

[5] = tested on: Tg197 mice; test: Hgb response in Tg197 mice (anemia of chronic disease); assay type: in vivo, mouse
From the text: The pharmacodynamics of epoetin-α in C57Bl/6 and Tg197 mice was first compared. Secondly, CNTO 530, epoetin-α and darbepoetin in Tg197 mice was compared.
Materials and Methods. Nine-week old heterozygous Tg197-CBA F1 transgenic mice, age-matched C57Bl/6 mice and age-matched CBA-057Bl/6 F1 hybrid (CBF1) mice were obtained from Ace Laboratories (Boyertown, Pa.), Ace Laboratories and Jackson Laboratories (Bar Harbor, Me.), respectively. Founder Tg197 mice for the transgenic colony was obtained from G. Kollias. The breeding stock was maintained as homozygotes and received weekly injections of murine anti-human TNFa antibodies (10 mg/kg intraperitoneally) to control their arthritis. For these experiments, homozygous Tg197 males were bred to CBA females. CBF1 mice were used because their disease progresses more slowly than that seen in homozygous Tg197 mice. The mice were group housed (4 per cage) in filter-topped plastic shoebox style cages. The animals were individually identified with ear tags, placed at least a week prior to the start of the study. […] All mice were maintained in the pathogen-free vivarium at Centocor R&D, Inc., Radnor Pa. The Institutional Animal Care and Use Committee at Centocor approved all associated procedures.
CNTO 530, recombinant human erythropoietin (epoetin-α, OrthoBiotech, Raritian N.J.), darbepoetin (Amgen, Thousand Oaks, Calif.), and PBS. Doses were expressed as mg/kg or UT-7 Units/kg (U/kg).
as §1, with “sample. […]” for “sample.”
Hematology: Blood samples from mice in the model characterization and pharmacodynamic studies were collected at the times indicated in Tables 1 and 2. […] Data are expressed as group mean±standard deviation. Results: Data are expressed as the group mean and standard deviation or as group mean change from control. […]

[6] = per mg of protein; cited from earlier work
[7] = tested on: normal rats; settings: single subcutaneous dose, compared to rhEPO and darbepoetin; cited from earlier work
[8] = cited from earlier work
[9] = tested on: UT7 cells; settings: UT-7EPO cells; cited from earlier work
[10] = target: T1, human EPO-R displayed on UT-7 cells (human, UniProt P19235 25-508); test: competitive binding against 125I-EPO (0.5 nM) on UT-7 cells displaying human EPO-R
T1 construct: Endogenous receptor on UT-7 human leukemic cells; also called erythropoietin receptor; human EPO receptor
T1 sequence: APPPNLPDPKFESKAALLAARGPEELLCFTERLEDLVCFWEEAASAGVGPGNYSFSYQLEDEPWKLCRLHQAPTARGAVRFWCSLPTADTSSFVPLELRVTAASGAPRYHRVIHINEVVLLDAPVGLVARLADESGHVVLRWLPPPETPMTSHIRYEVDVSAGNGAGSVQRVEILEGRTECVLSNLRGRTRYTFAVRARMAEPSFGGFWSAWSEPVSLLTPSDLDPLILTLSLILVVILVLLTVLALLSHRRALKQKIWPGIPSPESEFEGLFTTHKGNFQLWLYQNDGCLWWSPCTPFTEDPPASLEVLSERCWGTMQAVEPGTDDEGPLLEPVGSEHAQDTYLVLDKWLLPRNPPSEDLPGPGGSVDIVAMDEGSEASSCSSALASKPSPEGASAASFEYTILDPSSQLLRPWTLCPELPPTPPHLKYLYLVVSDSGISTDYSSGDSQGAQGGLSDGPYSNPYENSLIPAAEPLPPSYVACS
Description: Using UT-7 cells, which display EPO-R and require an ESA for proliferation, competitive binding for the human EPO-R between CNTO 530 inhibited and ¹²⁵I-EPO was measured.

[11] = target: T2, EPO-receptor (form in the assay not stated) (human, UniProt P19235 25-508, limits assumed); test: assay not stated
T2 sequence: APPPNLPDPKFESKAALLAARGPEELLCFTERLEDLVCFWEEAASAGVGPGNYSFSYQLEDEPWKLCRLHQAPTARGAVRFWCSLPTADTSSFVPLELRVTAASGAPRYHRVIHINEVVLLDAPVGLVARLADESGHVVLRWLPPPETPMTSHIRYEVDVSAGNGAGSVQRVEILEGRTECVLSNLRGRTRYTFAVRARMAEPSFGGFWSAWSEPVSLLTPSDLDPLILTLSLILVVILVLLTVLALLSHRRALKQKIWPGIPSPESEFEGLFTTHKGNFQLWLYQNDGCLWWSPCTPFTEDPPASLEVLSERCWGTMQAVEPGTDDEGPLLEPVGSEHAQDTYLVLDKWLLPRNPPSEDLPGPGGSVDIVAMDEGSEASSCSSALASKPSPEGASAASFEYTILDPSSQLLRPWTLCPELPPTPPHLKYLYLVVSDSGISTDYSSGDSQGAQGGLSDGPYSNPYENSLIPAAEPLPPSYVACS

[12] = target: T1, human EPO-R displayed on UT-7 cells; test: cell-based or functional assay

Molecule: epoetin-α: recombinant human erythropoietin (OrthoBiotech), 166 amino acid sequence SEQ ID NO: 1
- increase in Hgb [1]: approximately 2 g/dL
- in vitro activity [2]: 120 UT-7 Units/ug
- EC50 ([2]; 48 hours, MTS): ~0.018 nM
- day Hgb returned to baseline ([3]; 0.3 mg/kg s.c., single dose): 15 days
- increase in Hgb ([3]; 0.3 mg/kg s.c., single dose): ~1.5 g/dL
- Hgb response ([3]; 0.03 and 0.3 mg/kg s.c.): dose-dependent increase in hemoglobin
- increase in hemoglobin [4]: less than 1 g/dL
- Hgb response (increase) ([5]; 0.3 mg/kg s.c., single dose): ~1 g/dL
- day Hgb returned to baseline ([5]; 0.3 mg/kg s.c., single dose): ≤ 8 days
- Hgb response ([5]; single s.c. dose, comparison at 30,000 U/kg): little dose response between 0.03 and 0.3 mg/kg
- specific activity [6]: 100,000 to 200,000 U/mg

Molecule: Human urinary EPO: isolated human urinary EPO, international reference standard for EPO assays
- specific activity [6]: about 70,000 U/mg

Molecule: CNTO 528: EPO-mimetic peptide antibody fusion protein; disulfide-linked homodimer of SEQ ID NO: 2, two EMP1 copies and portions of human IgG
- hematology response / efficacy [7]: longer-lived reticulocytosis and a longer-lived increase in hemoglobin; also recorded: only minor changes in red cell distribution width (RDW) or mean cell volume (MCV); also recorded: no effect on mean platelet volume (MPV); also recorded: efficacious in rat models of anemia and in a rat model of pure red cell aplasia
- pharmacodynamic response ([8]; IV 0.03-0.9 mg/kg): prolonged, dose-dependent erythropoietic responses; also recorded: dose dependent increase in RBC count; also recorded: dose-dependent increase in soluble transferrin receptor concentration; also recorded: dose-dependent increase in endogenous EPO concentration
- tolerability ([8]; IV 0.03-0.9 mg/kg): well tolerated
- pharmacokinetics ([8]; IV): linear and approximately dose proportional
- mean Hgb concentration above baseline at last measurement ([8]; approximately 2.5 months after a single dose): 0.4 g/dL
- immunogenicity ([8]; human, in vivo): No immunogenicity was observed
- time of maximum effect on Hgb concentration ([8]; single IV dose): 22 days
- fold less potent than rhEPO on a molar basis, growth stimulation [9]: approximately 10 fold

- IC50 [10]: ~60 nM
- Kd [11]: ~10 nM
- induction of UT-7 cell proliferation (EC50) [12]: ~0.055 nM
- potency against rHuEPO in a simple proliferation assay using UT-7 cells [12]: ~24 fold less potent than rHuEPO (molar)
- rescue of EPO-deprived UT-7 cells from apoptosis (EC50) [12]: ~0.021 nM
B1: CNTO 530 (Fc fusion)
chain: QIQGGTYSCHFGPLTWVCKPQGGGSCPPCPAPEAAGGPSVFLFPPKPKDTLMISRTPEVTCVVVDVSQEDPEVQFNWYVDGVEVHNAKTKPREEQFNSTYRVVSVLTVLHQDWLNGKEYKCKVSNKGLPSSIEKTISKAKGQPREPQVYTLPPSQEEMTKNQVSLTCLVKGFYPSDIAVEWESNGQPENNYKTTPPVLDSDGSFFLYSRLTVDKSRWQEGNVFSCSVMHEALHNHYTQKSLSLSLGK
notes: EPO-mimetic peptide antibody fusion protein; Homodimer joined by disulfide bonds through cysteines in the immunoglobulin-derived portion; May or may not be glycosylated; also called Dimeric EMP1 construct: CNTO 530
